Experimental data taken from patent publication US20250296938A1, “Compounds that Interact with the Ras Superfamily for the Treatment of Cancers, Inflammatory Diseases, Rasopathies, and Fibrotic Disease” (SHY Therapeutics, LLC, priority 2018, published 2025).
Like-named read-outs stand apart in the source and are kept apart here.

Test system: MIA PaCa-2 pancreatic cancer cell line
Assay: Cell proliferation assay (DAPI)
Format: cell-based
Conditions: Homo sapiens; for inhibition at 10 µM: read-out: % Inhibition of cell proliferation, MIA PaCa-2 % inh
Method: Cell lines: Human NSCLC cells NCI-H1975 and NCI-H1299, and tumor-derived pancreatic cancer cell lines Panc-1, MIA-PACA2, and BxPC3, were all purchased from American Type Culture Collection and grown in complete RPMI medium (BxPC3, NCI-H1975 and NCI-H1299) or DMEM-High Glucose (Panc1 and MIA-PaCa-2), supplemented with penicillin (100 U/mL), streptomycin (100 μg/mL), and 10% heat-inactivated FBS at 37° C. in a humidified incubator with 5% CO2.
Method: Cells were plated at 2000 to 5000 cells/well density in 96-wells plate and cultured ON. Small molecules to be tested were added to the cells in the final concentration of 10 µM in the presence of 0.3% DMSO and 10% FBS, and incubated for 2-4 days at 37° C. in a humidified incubator with 5% CO2. For IC50 value determination, serial dilutions of compounds were added to cells under the same conditions.
Assay: At the end of the incubation period, cell cultures were fixed with a 50-50 mixture (v/v) acetone-methanol for 10 minutes at −20° C., followed by rehydration in PBS for 10 minutes at room temperature. DNA total content was determined by staining cells with DAPI (1 ug/ml) in PBS for 10 minutes at room temperature, followed by 3 washes with PBS. After staining, DAPI fluorescence was recorded (358 nm excitation/461 nm emission) with the 96-well plate reader Molecular Devices Spectramax M3; degree of small molecule-dependent proliferation inhibition was calculated from raw data.

SMILES | inhibition at 10 µM (2-4 days, MIA PaCa-2) [%] | inhibition at 10 µM (MIA PaCa-2 (Table 5A)) [%] | IC50 (MIA PaCa-2 (Table 5A)) [µM]
O=C(c1nc(-c2ccccn2)nc(O)c1O)N1CCc2ccccc2C1 [drawing 594] | 1 to 25 | – | –
O=C(c1nc(-c2ccccn2)nc(O)c1O)N1CCOCC1 [drawing 595] | 0 | – | –
O=C(NCc1ccccc1)c1nc(-c2ccccn2)nc(O)c1O [drawing 597] | 26 to 50 | – | –
O=C(c1nc(-c2ccccn2)nc(O)c1O)N1CCCC1 [drawing 598] | 1 to 25 | – | –
O=C(NC1CCCC1)c1nc(-c2ccccn2)nc(O)c1O [drawing 599] | 26 to 50 | – | –
CC(C)CN(C)C(=O)c1nc(-c2ccccn2)nc(O)c1O [drawing 600] | 0 | – | –
CC(C)CNC(=O)c1nc(-c2ccccn2)nc(O)c1O [drawing 601] | 0 | – | –
COCCN(C)C(=O)c1nc(-c2ccccn2)nc(O)c1O [drawing 602] | 0 | – | –
O=C(NC1CCC1)c1nc(-c2ccccn2)nc(O)c1O [drawing 603] | 0 | – | –
CC(C)NC(=O)c1nc(-c2nccn2C)nc(O)c1O [drawing 604] | 26 to 50 | – | –
CCN(CC)C(=O)c1nc(-c2nccn2C)nc(O)c1O [drawing 605] | 1 to 25 | – | –
Cn1ccnc1-c1nc(O)c(O)c(C(=O)N2CCCC2)n1 [drawing 606] | 0 | – | –
Cn1ccnc1-c1nc(O)c(O)c(C(=O)NC2CCCC2)n1 [drawing 607] | 0 | – | –
Cn1ccnc1-c1nc(O)c(O)c(C(=O)N2CCCCC2)n1 [drawing 608] | 1 to 25 | – | –
Cn1ccnc1-c1nc(O)c(O)c(C(=O)NC2CCC2)n1 [drawing 609] | 1 | – | –
COC(=O)c1nc(-c2nccn2C)nc(O)c1O [drawing 610] | 0 | – | –
COc1nc(-c2ccccn2)nc(Nc2cnn(C)c2)c1OC [drawing 611] | 1 to 25 | – | –

SMILES | inhibition at 10 µM (2-4 days, MIA PaCa-2) [%] | inhibition at 10 µM (MIA PaCa-2 (Table 5A)) [%] | IC50 (MIA PaCa-2 (Table 5A)) [µM]
COCCn1cc(Nc2nc(-c3ccccn3)nc(OC)c2OC)cn1 [drawing 612] | 26 to 50 | – | –
COC1CCN(c2nc(-c3nccn3C)nn3cc(-c4ccccc4)c(-c4ccccc4)c23)C1 (stereo not shown) [drawing 613] | 76 to 100 | – | –
COc1c(O)nc(-c2ccccn2)nc1Oc1ccc(C(=O)N(C)C)cc1 [drawing 614] | – | 1 to 25 | –
COc1c(O)nc(-c2ccccn2)nc1Nc1ccccc1 [drawing 615] | – | 76 to 100 | > 1
CCn1cc(Nc2nc(-c3ccccn3)nc(O)c2OC)cn1 [drawing 616] | – | 0 | > 1
CCOc1cccc(Nc2nc(-c3ccccn3)nc(O)c2OC)c1 [drawing 617] | – | 76 to 100 | > 1
COc1cccc(-c2sc3nc(-c4nccn4C)nc(NC4CCC(OC)C4)c3c2-c2ccccc2)c1F (stereo not shown) [drawing 618] | – | 76 to 100 | 0.75 to 1
COc1cccc(-c2sc3nc(-c4nccn4C)nc(N[C@@H]4CC[C@H](OC)C4)c3c2-c2ccccc2)c1F [drawing 619] | – | 76 to 100 | 0.75 to 1
COC1CCC(Nc2nc(-c3nccn3C)nc3sc(-c4cccc(O)c4F)c(-c4ccccc4)c23)C1 (stereo not shown) [drawing 620] | – | 76 to 100 | > 1
COc1c(F)cccc1-c1sc2nc(-c3nccn3C)nc(NC3CCC(OC)C3)c2c1-c1ccccc1 (stereo not shown) [drawing 621] | – | 76 to 100 | 0.75 to 1
COc1c(F)cccc1-c1sc2nc(-c3nccn3C)nc(N[C@@H]3CC[C@H](OC)C3)c2c1-c1ccccc1 [drawing 622] | – | 76 to 100 | 0.75 to 1
COC1CCC(Nc2nc(-c3nccn3C)nc3sc(-c4cccc5[nH]ncc45)c(-c4ccccc4)c23)C1 (stereo not shown) [drawing 623] | – | 76 to 100 | 0.75 to 1
CO[C@H]1CC[C@@H](Nc2nc(-c3nccn3C)nc3sc(-c4cccc5[nH]ncc45)c(-c4ccccc4)c23)C1 [drawing 624] | – | 76 to 100 | 0.75 to 1
COC1CCN(c2nc(-c3nccn3C)nc3sc(-c4cccc(O)c4F)c(-c4ccccc4)c23)C1 (stereo not shown) [drawing 625] | – | 76 to 100 | > 1
COc1cccc(-c2sc3nc(-c4nccn4C)nc(N[C@H]4C[C@@H](OC)C4)c3c2-c2ccccc2)c1F [drawing 626] | – | 76 to 100 | 0.5 to 0.749
CO[C@H]1C[C@@H](Nc2nc(-c3nccn3C)nc3sc(-c4cnn(C)c4)c(-c4ccccc4)c23)C1 [drawing 627] | – | 76 to 100 | 0.75 to 1
